Results taken from the supplement of paper PMC10307832.

What was measured:
Experiment in all cases: relative viability (nuclei count vs DMSO), 5 days (fraction); higher = more cells survive
VE-821 = compound: CS(=O)(=O)c1ccc(-c2cnc(N)c(C(=O)Nc3ccccc3)n2)cc1 [VE-821]
In short: (§1)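 Lung cancer cell lines in 1536-well plates were exposed by pinning to five library-drug doses (not always all listed) √10 apart, following an overnight hold at 37 °C. MetaXpress counted Hoechst-stained nuclei from 4× images taken after 5 days without medium change. Viability is the median ratio of treated-well to vehicle-well nuclei across plates. Plates required control CV below 25% and at least one doubling.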

Vismodegib = compound: CS(=O)(=O)c1ccc(C(=O)Nc2ccc(Cl)c(-c3ccccn3)c2)c(Cl)c1 [Vismodegib]
In short: as §1

Ruxolitinib = compound: N#CC[C@H](C1CCCC1)n1cc(-c2ncnc3[nH]ccc23)cn1 [Ruxolitinib]
In short: as §1

Row | Cell Line | relative viability (VE-821; 0.08 µM) | relative viability (VE-821; 0.253 µM) | relative viability (VE-821; 0.8 µM) | relative viability (VE-821; 2.53 µM) | relative viability (VE-821; 8 µM) | relative viability (Vismodegib; 0.08 µM) | relative viability (Vismodegib; 0.253 µM) | relative viability (Vismodegib; 0.8 µM) | relative viability (Vismodegib; 2.53 µM) | relative viability (Vismodegib; 8 µM) | relative viability (Ruxolitinib; 0.08 µM) | relative viability (Ruxolitinib; 0.253 µM) | relative viability (Ruxolitinib; 0.8 µM) | relative viability (Ruxolitinib; 2.53 µM) | relative viability (Ruxolitinib; 8 µM)
1 | EKVX | 1.12 | 0.997 | 0.937 | 1.08 | 0.855 | 0.797 | 0.945 | 0.944 | 0.968 | 0.941 | 0.753 | 0.836 | 1 | 0.898 | 0.742
2 | EMC-BAC-2 | 1.18 | 0.896 | 1.02 | 0.965 | 0.858 | 0.99 | 0.953 | 0.903 | 1.01 | 0.934 | 0.974 | 0.946 | 1.06 | 0.978 | 0.678
3 | EPLC-272H | 1.06 | 0.916 | 1.08 | 1.02 | 0.663 | 0.936 | 0.942 | 0.875 | 0.952 | 0.863 | 0.966 | 0.894 | 0.933 | 0.906 | 0.818
4 | H3255 | 0.987 | 0.961 | 0.92 | 1.06 | 0.944 | 0.921 | 0.921 | 0.951 | 0.936 | 0.962 | 0.73 | 0.938 | 1.09 | 0.969 | 0.811
5 | HARA | 1.09 | 0.747 | 0.954 | 1.12 | 0.812 | 1 | 0.883 | 0.883 | 0.971 | 0.954 | 0.936 | 1.01 | 1.03 | 0.935 | 0.88
6 | HCC-15 | 1.09 | 0.966 | 1.08 | 1.21 | 0.996 | 1.03 | 0.973 | 0.977 | 1.04 | 0.959 | 1.01 | 0.984 | 1.07 | 0.943 | 0.811
7 | HCC-44 | 1 | 0.962 | 1.06 | 1.04 | 1.04 | 1.01 | 0.94 | 0.938 | 0.934 | 1.01 | 0.958 | 0.939 | 1.04 | 1.02 | 0.843
8 | HCC-78 | 1.1 | 0.863 | 0.887 | 1.04 | 0.756 | 0.82 | 0.914 | 0.875 | 0.902 | 0.865 | 0.831 | 0.717 | 0.869 | 0.853 | 0.743
9 | HCC-366 | 1.06 | 1.01 | 0.85 | 0.925 | 0.191 | 0.997 | 1.04 | 0.998 | 0.984 | 1 | 1.07 | 0.984 | 1.05 | 1.03 | 0.932
10 | HCC-827 | 1.06 | 1.02 | 1.1 | 1.06 | 1.04 | 1.04 | 1.01 | 1.04 | 1.03 | 1.03 |  | 1.01 | 0.891 | 0.859 | 0.901
11 | HOP-62 | 1.11 | 0.997 | 1.02 | 1.18 | 1.02 | 0.998 | 0.954 | 0.94 | 0.96 | 1 | 0.976 | 1.04 | 1.09 | 1.05 | 0.972
12 | IA-LM | 1.02 | 0.874 | 0.999 | 1.06 | 0.808 | 0.883 | 0.963 | 0.964 | 0.85 | 0.876 | 0.855 | 1.02 | 1.08 | 1.05 | 0.888
